Key:
[1] = relative to deferoxamine; cited from earlier work
[2] = Kow distribution coefficient, partition between water and 1-octanol; format: physicochemical; settings: distribution coefficient between water and 1-octanol of the hydroxypyridinone HCl addition salt, according Dubbin et al.
Description: A key feature is the hydro-lipophilic property, which basically correlate with its distribution coefficients (“Kow”).

[3] = Kamiyama et al 1981; cited from earlier work
[4] = Berdoukas et al, Lancet 1993; cited from earlier work

Row | Kow [2] | Structure (SMILES) | partition coefficient, times that of deferoxamine [1] [times] | lipid peroxidation, hydroxyl radical production, free radical-mediated cell damage [3] | cellular uptake versus deferoxamine [4]
1 | 0.17 | Cc1c(O)c(=O)ccn1C [Example 1, 1,2-dimethyl-3-hydroxy-4-pyridinone] | 21 | dramatically decrease | significantly higher than that of deferoxamine
2 | 0.63 | CCc1c(O)c(=O)ccn1C [Example 11, 1-methyl-2-ethyl-3-hydroxy-4-pyridinone] |  |  | 
3 | 1.78 | CCc1c(O)c(=O)ccn1CC [Example 12, 1,2-diethyl-3-hydroxy-4-pyridinone] |  |  | 

Source: patent US20120077852A1, “HYDROXYPYRIDINONES FOR THE LOCAL TREATMENT OF SKIN MICROCIRCULATORY DISORDERS” (priority 2002, published 2012)
